{
  "source": "patent US20120115802A1",
  "about": "“Method for using ulipristal acetate with cytochrome isozyme modulators” (LABORATOIRE HRA PHARMA, priority 2010, published 2012)",
  "key": {"[1]": {"conditions": "used within 72 hours of unprotected intercourse; cited from earlier work"}, "[2]": {"test": "Metabolism in liver microsomal preparations", "type": "in vitro ADME, mice, rats, rabbits, dogs, monkeys and humans", "conditions": "in vitro", "text": "Metabolism of ulipristal acetate was investigated in vitro in liver microsomal preparations from mice, rats, rabbits, dogs, monkeys and humans."}},
  "data": [
    {"smiles": "CC(=O)O[C@]1(C(C)=O)CC[C@H]2[C@@H]3CCC4=CC(=O)CCC4=C3[C@@H](c3ccc(N(C)C)cc3)C[C@@]21C", "note": "[ulipristal acetate, 17α-acetoxy-11β-[4-N,N-dimethylamino-phenyl)-19-norpregna-4,9-diene-3,20-dione]", "values": [
      {"measurement": "Efficacy for preventing pregnancy compared with levonorgestrel", "setting": "[1]", "value": "as efficacious as levonorgestrel"},
      {"measurement": "Metabolites produced in liver microsomes across species", "setting": "[2]; liver microsomes from mice, rats, rabbits, dogs, monkeys and humans, proportions varied between species", "value": "All species produced the same two major metabolites"},
      {"measurement": "Metabolite unique to humans", "setting": "[2]; liver microsomes, humans compared with the other species", "value": "No metabolite was detected which was unique to humans"}
    ]}
  ]
}
